Assay results taken from publication PMC12371494, “Discovery of YTHDF2 Ligands by Fragment-Based Design” (ACS Bio & Med Chem Au, 2025).

Target: T1, GST-YTHDF3 (Homo sapiens, UniProt Q7Z739)
T1 construct: made in house
T1 sequence (Q7Z739 1-585): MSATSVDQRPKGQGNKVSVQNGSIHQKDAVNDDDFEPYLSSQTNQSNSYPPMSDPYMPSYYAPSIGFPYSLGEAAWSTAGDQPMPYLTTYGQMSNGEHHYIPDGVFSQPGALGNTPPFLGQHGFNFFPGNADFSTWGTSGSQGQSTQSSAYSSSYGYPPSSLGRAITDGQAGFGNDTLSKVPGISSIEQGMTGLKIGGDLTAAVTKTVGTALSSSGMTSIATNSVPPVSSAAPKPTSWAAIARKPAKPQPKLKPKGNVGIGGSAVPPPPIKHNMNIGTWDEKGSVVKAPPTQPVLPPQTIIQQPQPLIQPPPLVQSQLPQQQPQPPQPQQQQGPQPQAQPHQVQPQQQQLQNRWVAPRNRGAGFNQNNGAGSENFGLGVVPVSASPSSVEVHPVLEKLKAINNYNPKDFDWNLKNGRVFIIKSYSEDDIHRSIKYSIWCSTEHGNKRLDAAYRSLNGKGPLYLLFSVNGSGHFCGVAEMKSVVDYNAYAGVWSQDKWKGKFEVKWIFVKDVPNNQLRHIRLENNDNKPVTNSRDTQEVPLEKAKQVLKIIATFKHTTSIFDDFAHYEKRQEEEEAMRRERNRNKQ
Test: HTRF-based binding assay, DF3
Conditions: for Single-dose residual signal at 100 µM, DF3: 100 µM compound, normalized; for IC50: dose-response
Description: The HTRF-based assay was employed to evaluate the selectivity of the series against other DF proteins.
A dose–response experiment on DF1 and DF3 was conducted for compounds 17, 18, 23, and 27 (Figure S5). Compounds 17, 18, and 27 are active on three DF proteins. […] In contrast, compound 23 is selective for DF2, with residual signals (at the highest employed concentration of 62.5 μM) of 51 and 87% for DF1 and DF3, respectively.
GST-YTHDC1, GST-YTHDF1, GST-YTHDF2, and GST-YTHDF3 were purified as previously reported. The HTRF assay was assembled as detailed in ref with the only difference being that the starting concentration of the dose–response experiments used for the IC50 determination was variated dependently from the tested compound. The same protocol was applied to the four proteins. The competitive inhibition data of GST-YTHDF1 (single dose experiment at 100 μM compound concentration and dose–response curves), GST-YTHDF3 (single dose experiment at 100 μM compound concentration and dose–response curves), and GST-YTHDF2 (single dose experiment at 100 μM compound concentration) were normalized as described in ref to mitigate interference. The signal was measured as described in ref .

Row | Structure (SMILES) | Single-dose residual signal at 100 µM, DF3 (HTRF) [%] | IC50 [µM] | Residual signal DF3 at highest concentration (HTRF, 62.5 μM compound) [%]
1 | O=c1[nH]c(=S)[nH]c2sccc12 [Compound 14] | 23 |  | 
2 | COC(=O)c1ccc(-c2csc3[nH]c(=S)[nH]c(=O)c23)cc1 [Compound 17] | 7 | 21 | 
3 | O=C(O)c1ccc(-c2csc3[nH]c(=S)[nH]c(=O)c23)cc1 [Compound 18] | 19 | 53 | 
4 | O=c1[nH]c(=S)[nH]c2scc(-c3ccc(O)cc3)c12 [Compound 19] | 13 |  | 
5 | CC(=O)c1sc2[nH]c(=S)[nH]c(=O)c2c1C [Compound 20] | 12 |  | 
6 | CCOC(=O)c1sc2[nH]c(=S)[nH]c(=O)c2c1C [Compound 21] | 10 |  | 
7 | Cc1c(C(=O)NCc2ccccc2)sc2[nH]c(=S)[nH]c(=O)c12 [Compound 22] | 18 |  | 
8 | Cc1c(C(=O)NCc2cccnc2)sc2[nH]c(=S)[nH]c(=O)c12 [Compound 23] | 33 | > 60 | 87
9 | Cc1c(C(=O)NCc2cccc(C(=O)O)c2)sc2[nH]c(=S)[nH]c(=O)c12 [Compound 24] | 12 |  | 
10 | Cc1c(C(=O)NCCCC(=O)O)sc2[nH]c(=S)[nH]c(=O)c12 [Compound 25] | 26 |  | 
11 | Cc1c(-c2ccc([N+](=O)[O-])cc2)sc2[nH]c(=S)[nH]c(=O)c12 [Compound 26] | 15 |  | 
12 | Cc1c(-c2ccc(N)cc2)sc2[nH]c(=S)[nH]c(=O)c12 [Compound 27] | 5 | 50 | 
13 | NC(=O)c1csc2[nH]c(=S)[nH]c(=O)c12 [Compound 31] | 36 |  | 

Now from value to compound:

Row | Single-dose residual signal at 100 µM, DF3 (HTRF) [%] | IC50 [µM] | Residual signal DF3 at highest concentration (HTRF, 62.5 μM compound) [%] | Structure (SMILES)
14 | 8 |  |  | O=c1[nH]c(=S)[nH]c2scc(-c3ccc(Br)cc3)c12 [Compound S75]
15 | 12 |  |  | COc1ccc(-c2csc3[nH]c(=S)[nH]c(=O)c23)cc1 [Compound S76]
16 | 35 |  |  | O=c1[nH]c(=S)[nH]c2scc(C3CCCCC3)c12 [Compound S77]
17 | 35 |  |  | O=c1[nH]c(=S)[nH]c2sc(Cc3ccccc3)cc12 [Compound S85]
18 | 16 |  |  | CCOC(=O)c1csc2[nH]c(=S)[nH]c(=O)c12 [Compound S89]
19 | 34 |  |  | O=C(O)c1csc2[nH]c(=S)[nH]c(=O)c12 [Compound S90]
